Consider 3 molecules from patent US20220143003A1, “COMPOSITIONS AND METHODS TO TREAT NON-ALCOHOLIC FATTY LIVER DISEASES (NAFLD)” (Coherus Biosciences, Inc., priority 2018, published 2022).

Common to all, as to assay type: in vivo, male C57BL/6JRj mice
For series [1], the system named is DIO-NASH mice. As to the kind of experiment: Absolute and relative body weight, measured daily and at termination. The following applies: for Absolute body weight at termination / Terminal relative body weight, percentage of starting body weight: group mean; for Terminal relative body weight, percentage of starting body weight: day 83/84/85, baseline day 0=100%. Here is the method: The Diet-induced-obesity (DIO)-NASH mouse model was induced by feeding male C57BL/6JRj mice a high fat diet containing 40% fat with trans-fat, 20% fructose and 2% cholesterol (AMLN diet or D09100301, Research Diets Inc., USA). Induction of NASH was started at 5 weeks of age and mice were fed the AMLN diet for 36 weeks prior to study start resulting in NASH, which was confirmed by pre-biopsy prior to study start as described below.
Absolute body weight, BW, (g) was measured daily throughout the study period. Values expressed as mean of n=11-14+SEM (see FIG. 1).
Absolute body weight at termination (measured day 83/84/85). Values expressed as mean of n=12-14+SEM.
Relative BW, recorded as percentage of starting body weight (baseline day 0=100%), was measured daily throughout the study period. Values expressed as mean of n=11-14+SEM (see FIG. 2).
Terminal relative body weight (measured day 83/84/85), recorded as percentage of starting body weight (baseline day 0=100%). Values expressed as mean of n=12-14+SEM.

Series [2] deals with DIO-NASH mice. As to the kind of experiment: 4 h fasted plasma insulin (MSD platform). As to conditions: for 4 h fasted plasma insulin / Delta 4 h fasted plasma insulin week 12 vs baseline: group mean. Here is the method: (§1) For plasma biochemistry, tail blood was drawn directly through the capillary of a Microvette/Vacuette of the right dimension and anticoagulant and mixed by inversion 5 times. Blood was placed at 4° C. until centrifugation at 3000×g for 10 minutes at 4° C. The plasma supernatants were transferred to new tubes and immediately frozen on dry ice and stored at −80° C. until analysis.
(§2) Mouse insulin was measured in single determinations using the MSD platform (Meso Scale Diagnostics).
4 h fasted plasma insulin (pg/mL) at baseline. Values expressed as mean of n=12-14+SEM.
4 h fasted plasma insulin (pg/mL) at week 12. Values expressed as mean of n=12-14+SEM.
Delta 4 h fasted plasma insulin (pg/mL) week 12 vs baseline. Values expressed as mean of n=12-14+SEM.

Series [3] deals with DIO-NASH mice. As to the kind of experiment: Liver hydroxyproline (HP) at termination, colorimetric assay. The following applies: for Relative liver hydroxyproline (HP) at termination / Total liver hydroxyproline (HP) at termination: group mean. As for the experimental part: (§3) The liver post-biopsy for histological analyses was removed by dissection from the left lateral lobe, fixated in 4% formalin for 20-24 h, and subsequently embedded in paraffin. Liver biopsies for liver triglycerides and total cholesterol were dissected from the medial lobe, snap frozen in liquid nitrogen, and stored at −80° C., while liver biopsies for hydroxyproline were dissected from the caudal lobe (the entire lobe), snap frozen in liquid nitrogen and stored at −80° C. Finally, a liver sample for RNA isolation and gene expression analysis was dissected from the left lateral lobe, snap frozen in liquid nitrogen, and stored at −80° C. until processing.
For liver hydroxyproline (HP; a protein marker of fibrosis) quantification, liver samples were homogenized in 6 M HCl and hydrolyzed to degrade collagen. The samples were centrifuged, and the hydroxyproline content measured in duplicates in the supernatant, using a colorimetric assay (Quickzyme Biosciences) according to the manufacturer's instructions.
Relative liver hydroxyproline (HP) (μg/mg of liver) at termination. Values expressed as mean of n=12-14+SEM.
Total liver hydroxyproline (HP) (μg/liver) at termination. Values expressed as mean of n=12-14+SEM.

Series [4] deals with DIO-NASH mice. As to the kind of experiment: Liver α-SMA IHC quantified by morphometry. As to conditions: for Relative terminal liver α-SMA by morphometry / Total terminal α-SMA (% fractional area multiplied with liver weight): group mean. Here is the method:
Protein markers of fibrosis (Col1a1), fibrogenesis (α-SMA) and inflammation (Gal-3) were assessed by immunohistochemistry. α-SMA and collagen type I increase in regulation of quiescent hepatic stellate cell activation into myofibroblast-like cells where activated hepatic stellate cells are the main collagen producing cells in the liver (Carpino et al 2005, Hou and Syn 2018) whereas Gal-3 is involved in mediating inflammatory response and considered as a macrophage activation marker (Sciacchitano et al, 2018). For morphometric quantification of liver Col1a1 (using antibody from Southern Biotech, Cat. #1310-01), alpha-smooth muscle actin (α-SMA; using antibody from Abcam, Cat. #Ab124964) and Galectin-3 (using antibody from Biolegend, Cat. #125402), IHC staining was performed using standard procedures. Briefly, after antigen retrieval and blocking of endogenous peroxidase activity, slides were incubated with primary antibody. For all IHC stains, the primary antibody was detected using a polymeric HRP-linker antibody conjugate and visualized using DAB as chromogen. Finally, sections were counterstained in hematoxylin and cover-slipped before scanning.
Quantitative assessment of immunoreactivity is evaluated as follows. IHC-positive staining is quantified by image analysis using the Visiomorph software (Visiopharm, Denmark). Visiomorph protocols are designed to analyze the virtual slides in two steps: 1. Crude detection of tissue at low magnification (1× objective). The liver capsule is excluded. 2. Detection of IHC-positive staining (e.g. green; collagen 1 IHC), tissue (e.g. red) and fat (e.g. pink) at high magnification (10×objective). The quantitative estimate of IHC-positive staining is calculated as an area fraction (AF) according to the following formula:
Terminal liver α-SMA was quantified by morphometry. Relative terminal liver α-SMA (% fractional area) is expressed as mean of n=12-14+SEM.
Total terminal α-SMA values are in milligrams (% fractional area multiplied with liver weight) and expressed as mean of n=12-14+SEM.

Series [5] deals with DIO-NASH mice. As to the kind of experiment: Liver triglycerides (TG) at termination. As to conditions: group mean. Here is the method: as §3
For liver TG and TC quantification, samples were homogenized, and TG and TC extracted in 5% NP-40 by heating twice to 90° C. The samples were centrifuged, and the TG and TC content measured in the supernatant, using commercial kits (Roche Diagnostics) on the Cobas c501 autoanalyzer according to the manufacturer's instructions.
Relative (mg/g of liver) liver triglycerides (TG) at termination. Values expressed as mean of n=12-14+SEM.
Total (mg/liver) liver triglycerides (TG) at termination. Values expressed as mean of n=12-14+SEM.

Series [6] has as its system DIO-NASH mice. The series is described as follows: Plasma urea at termination. As to conditions: for Plasma urea at termination: group mean. As for the experimental part: as §1, §2
Plasma urea at termination (mmol/L). Values expressed as mean of n=12-14+SEM.

The mark [7] stands for this setting: day 83/84/85, CHS-131 High 30 mg/kg, empagliflozin 10 mg/kg, elafibranor 30 mg/kg PO, liraglutide 0.4 mg/kg SC, QD.
[8] abbreviates: CHS-131 High 30 mg/kg, empagliflozin 10 mg/kg, elafibranor 30 mg/kg PO, liraglutide 0.4 mg/kg SC, QD.
The mark [9] stands for this setting: DIO-NASH mice, 12 weeks of treatment, summary of data.
The mark [10] stands for this setting: at baseline, CHS-131 High dose (alone or combined).
[11] abbreviates: week 12, CHS-131 High dose (alone or combined).
Where [12] appears, read: CHS-131 High dose (alone or combined).

For `O=S(=O)(Nc1cc(Cl)c(Oc2cnc3ccccc3c2)c(Cl)c1)c1ccc(Cl)cc1Cl` [CHS-131], the “Body weight, effect in words” value in series [1] (compared to DIO mice administered vehicle only) is listed as “tends to reduce”. Moreover, the “Absolute body weight at termination” value amounted to 38.2 grams in series [1] (setting [7]) and 38.2 grams in series [1] (day 83/84/85, CHS-131 Low 10 mg/kg PO QD). The figures for the “Terminal relative body weight, percentage of starting body weight” value in series [1] (setting [8]) and in series [1] (CHS-131 Low 10 mg/kg PO QD) were 102% and 103%, respectively. Besides, in series [2] (setting [9]), the “Plasma insulin, effect in words” value was “reduced”. For the same molecule, the “Decrease of fasting plasma insulin” value in series [2] (DIO-NASH mice, compared to DIO mice administered vehicle only, significant, dose response manner) is given as 50%. In addition, the “4 h fasted plasma insulin” value in series [2] (setting [10]) is 816 pg/mL; in series [2] (at baseline, CHS-131 Low dose) it was 703 pg/mL; in series [2] (setting [11]), 402 pg/mL; in series [2] (week 12, CHS-131 Low dose), 485 pg/mL. For the same molecule, the “Delta 4 h fasted plasma insulin week 12 vs baseline” value is -414 pg/mL in series [2] (setting [12]) and -219 pg/mL in series [2] (CHS-131 Low dose). The “Marker of fibrosis hydroxyproline, effect in words” value in series [3] (setting [9]) is listed as “positive trends for improvement”. In series [3] (DIO-NASH mice, compared to DIO mice administered vehicle only, significant), the “Improvement of liver hydroxyproline level at termination (marker of fibrosis)” value was determined as 30%. Moreover, the “Relative liver hydroxyproline (HP) at termination” value (shortened to “Relative liver hydroxyproline (HP)”) is recorded as 0.0802 μg/mg of liver in series [3] (setting [12]) and 0.0631 μg/mg of liver in series [3] (CHS-131 Low dose). Also, the “Total liver hydroxyproline (HP) at termination” value (from here on “Total liver hydroxyproline (HP)”) in series [3] (setting [12]) worked out at 250 μg/liver; in series [3] (CHS-131 Low dose), 205 μg/liver. Moreover, the “Marker of fibrosis α-SMA, effect in words” value in series [4] (setting [9]) is given as “positive trends for improvement”. The “Decrease of terminal α-SMA (marker of fibrosis)” value in series [4] (DIO-NASH mice, compared to vehicle alone, trend) is 15%. Also, the “Relative terminal liver α-SMA by morphometry” value (from here on “Relative terminal liver α-SMA”) is recorded as 3.07 % fractional area in series [4] (setting [12]) and 3.49 % fractional area in series [4] (CHS-131 Low dose). The “Total terminal α-SMA (% fractional area multiplied with liver weight)” value was 102 milligrams in series [4] (setting [12]) and 110 milligrams in series [4] (CHS-131 Low dose). The “Relative liver triglycerides (TG) at termination” value (“Relative liver triglycerides (TG)” below) is 92.9 mg/g of liver in series [5] (setting [12]) and 96.7 mg/g of liver in series [5] (CHS-131 Low dose). Moreover, the “Total liver triglycerides (TG) at termination” value (shortened to “Total liver triglycerides (TG)”) in series [5] (setting [12]) turned out to be 300 mg/liver; in series [5] (CHS-131 Low dose) it was 306 mg/liver. In series [6] (DIO-NASH mice, compared to DIO mice administered vehicle only), the “Hemodilution, assessed by urea, effect in words” value is listed as “No difference”. Besides, the “Plasma urea at termination” value in series [6] (setting [12]) is on record as 7.12 mmol/L; in series [6] (CHS-131 Low dose) it was 7.4 mmol/L.
On to `CSc1ccc(C(=O)/C=C/c2cc(C)c(OC(C)(C)C(=O)O)c(C)c2)cc1` [Elafibranor, reference compound], for which, in series [1] (setting [7]), the “Absolute body weight at termination” value amounted to 31.8 grams. Further, the “Terminal relative body weight, percentage of starting body weight” value in series [1] (setting [8]) worked out at 86.5%. For the same molecule, in series [2] (setting [10]), the “4 h fasted plasma insulin” value was found to be 644 pg/mL. Also, the “4 h fasted plasma insulin” value in series [2] (setting [11]) was determined as 297 pg/mL. The “Delta 4 h fasted plasma insulin week 12 vs baseline” value in series [2] (setting [12]) was -347 pg/mL. Besides, in series [3] (setting [12]), the “Relative liver hydroxyproline (HP)” value is 0.0389 μg/mg of liver and the “Total liver hydroxyproline (HP)” value turned out to be 164 μg/liver. Also, in series [4] (setting [12]), the “Relative terminal liver α-SMA” value is reported as 2.56 % fractional area and the “Total terminal α-SMA (% fractional area multiplied with liver weight)” value was determined as 114 milligrams. Moreover, in series [5] (setting [12]), the “Relative liver triglycerides (TG)” value is reported as 45.2 mg/g of liver and the “Total liver triglycerides (TG)” value is listed as 196 mg/liver. The “Plasma urea at termination” value in series [6] (setting [12]) was found to be 8.01 mmol/L.
Take `OC[C@H]1O[C@@H](c2ccc(Cl)c(Cc3ccc(O[C@H]4CCOC4)cc3)c2)[C@H](O)[C@@H](O)[C@@H]1O` [Empagliflozin, reference compound]: the “Absolute body weight at termination” value in series [1] (setting [7]) was 39.6 grams. Further, the “Terminal relative body weight, percentage of starting body weight” value in series [1] (setting [8]) came out at 107%. Besides, in series [2] (setting [10]), the “4 h fasted plasma insulin” value came out at 743 pg/mL. Also, the “4 h fasted plasma insulin” value in series [2] (setting [11]) turned out to be 673 pg/mL. In series [2] (setting [12]), the “Delta 4 h fasted plasma insulin week 12 vs baseline” value was -69.9 pg/mL. Moreover, in series [3] (setting [12]), the “Relative liver hydroxyproline (HP)” value is given as 0.0747 μg/mg of liver and the “Total liver hydroxyproline (HP)” value is given as 233 μg/liver. Moreover, the “Markers of fibrosis, effect in words” value in series [4] (DIO-NASH mice, 12 weeks of treatment, summary of data, markers not given) was “significant reduction”. Besides, in series [4] (setting [12]), the “Relative terminal liver α-SMA” value is recorded as 3.8 % fractional area and the “Total terminal α-SMA (% fractional area multiplied with liver weight)” value was 130 milligrams. Moreover, in series [5] (setting [12]), the “Relative liver triglycerides (TG)” value was 108 mg/g of liver and the “Total liver triglycerides (TG)” value worked out at 368 mg/liver. Further, the “Plasma urea at termination” value in series [6] (setting [12]) worked out at 6.77 mmol/L.
